Data reported in ChEMBL document CHEMBL5143529, “Design, synthesis, and biological evaluation of novel (4-(1,2,4-oxadiazol-5-yl)phenyl)-2-aminoacetamide derivatives as multifunctional agents for the treatment of Alzheimer's disease” (Eur J Med Chem, 2022).
The source made the active and inactive calls. No cut-off for these calls is given here.

Experiments:
[1] = tested on: PC-12; assay: Neuroprotective activity against H202-induced cell death in rat PC-12 cells assessed as cell viability at 5 uM pretreated for 3 hrs followed by H2O2 stimulation and measured after 24 hrs by MTT assay relative to control; type: functional; conditions: time 27 hrs, read-out: Activity
[2] = target: Acetylcholinesterase (Electrophorus electricus, UniProt O42275); assay: Inhibition of electric eel AChE using acetylthiocholine iodide as substrate preincubated for 20 mins followed by substrate addition and measured after 5 mins by DTNB-reagent based Ellman's method
[3] = cells; conditions: Mus musculus, BV-2
Description: Inhibition of NO production in LPS-induced mouse BV-2 cells pretreated for 1 hr followed by LPS stimulation and measured after 24 hrs by ELISA

[4] = Cytotoxicity against rat PC-12 cells assessed as cell viability at 50 uM incubated for 24 hrs by MTT assay relative to control; type: toxicity, cell-based; conditions: read-out: Activity
[5] = Cytotoxicity against rat PC-12 cells assessed as cell viability at 25 uM incubated for 24 hrs by MTT assay relative to control; type: toxicity, cell-based; conditions: read-out: Activity
[6] = target: T1, Cholinesterase (Equus caballus, UniProt P81908)
Description: Inhibition of equine serum BuChE using butyrylthiocholine iodide as substrate preincubated for 20 mins followed by substrate addition and measured after 5 mins by DTNB-reagent based Ellman's method

[7] = Potency index, ratio of resveratrol IC50 to test compound IC50 for inhibition of NO production in LPS-induced mouse BV-2 cells pretreated for 1 hr followed by LPS stimulation and measured after 24 hrs by ELISA; type: functional; conditions: time 25 hrs
[8] = tested on: PC-12; assay: Neuroprotective activity against H202-induced cell death in rat PC-12 cells assessed as cell viability at 20 uM pretreated for 3 hrs followed by H2O2 stimulation and measured after 24 hrs by MTT assay relative to control; type: functional; conditions: time 27 hrs, read-out: Activity
[9] = target: Amyloid-beta precursor protein (Homo sapiens) (UniProt P05067); assay: Inhibition of amyloid beta (1 to 42 ) (unknown origin) self aggregation at 100 uM measured after 48 hrs by transmission electron microscopic analysis
[10] = Toxicity in C57BL/6 mouse assessed as median lethal dose administered intragastrically for 7 days; conditions: in vivo, po, time 7 day
[11] = tested on: BV-2; assay: Downregulation of iNOS protein expression in LPS-stimulated mouse BV-2 cells preincubated for 1 hr followed by LPS stimulation and measured after 24 hrs by Western blot analysis; type: functional, cell-based; conditions: dose 1-10 µM, time 25.0 hrs, DDE = dose-dependent effect
[12] = target: T1, Cholinesterase; assay: Mixed type inhibition of equine serum BuChE assessed as inhibition constant using varying level of butyrylthiocholine iodide as substrate by Lineweaver-Burk plot double reciprocal analysis
[13] = in vitro; conditions: dog, MDCK-MDR1
Description: Apparent permeability across basolateral to apical side in MDCKII-MDR1 cells at 75 uM incubated for 2 hrs

[14] = tested on: BV-2; assay: Downregulation of COX-2 protein expression in LPS-stimulated mouse BV-2 cells preincubated for 1 hr followed by LPS stimulation and measured after 24 hrs by Western blot analysis; type: functional, cell-based; conditions: dose 1-10 µM, time 25.0 hrs, DDE = dose-dependent effect
[15] = Antioxidant activity assessed as DPPH radical scavenging activity at 1000 uM incubated for 2 hrs under dark condition by microplate reader method relative to control; type: functional
[16] = target: Transcription factor p65 (Mus musculus) (UniProt Q04207); assay: Inhibition of p65 phosphorylation in LPS-stimulated mouse BV-2 cells at 1 to 10 uM pretreated for 1 hr followed by LPS stimulation and measured after 24 hrs by Western blot analysis; type: cell-based; conditions: dose 1-10 µM, time 25.0 hrs
[17] = tested on: PC-12; assay: Inhibition of H2O2-induced ROS production in rat PC-12 cells assessed as reduction in ROS accumulation at 1 to 50 uM pretreated for 6 hrs followed by H2O2 stimulation and measured after 18 hrs by DCFH-DA staining based fluorescence assay; type: functional, cell-based; conditions: dose 1-50 µM, time 24.0 hrs
[18] = target: Cholinesterase (Equus caballus) (UniProt P81908); assay: Mixed type inhibition of equine serum BuChE assessed as decrease in Vmax with increase in Km at 0.5 to 2 uM using varying level of butyrylthiocholine iodide as substrate by Lineweaver-Burk plot double reciprocal analysis; conditions: dose 0.5-2 µM
[19] = Inhibition of LPS-induced IL-1beta secretion in mouse BV-2 cells preincubated for 1 hr followed by LPS stimulation and measured after 24 hrs by ELISA; type: functional, cell-based
[20] = tested on: Mus musculus; assay: Anti-alzheimer activity against scopolamine-induced cognitive dysfunction C57BL/6 mouse model assessed as reduction in escape latency time administered intragastrically for 7 days followed by scopolamine stimulation and measured after 4 days by Morris water maze test; type: functional, organism-based; conditions: dose 10-30 mg/kg, route ig, time 11.0 day, DDE = dose-dependent effect
[21] = target: T2, Inhibitor of nuclear factor kappa-B kinase subunit beta (Mus musculus) (UniProt O88351); assay: Inhibition of IkappaB phosphorylation in LPS-stimulated mouse BV-2 cells pretreated for 1 hr followed by LPS stimulation and measured after 24 hrs by Western blot analysis; type: cell-based; conditions: dose 1-10 µM, time 25.0 hrs, DDE = dose-dependent effect
T2 sequence (whole entry): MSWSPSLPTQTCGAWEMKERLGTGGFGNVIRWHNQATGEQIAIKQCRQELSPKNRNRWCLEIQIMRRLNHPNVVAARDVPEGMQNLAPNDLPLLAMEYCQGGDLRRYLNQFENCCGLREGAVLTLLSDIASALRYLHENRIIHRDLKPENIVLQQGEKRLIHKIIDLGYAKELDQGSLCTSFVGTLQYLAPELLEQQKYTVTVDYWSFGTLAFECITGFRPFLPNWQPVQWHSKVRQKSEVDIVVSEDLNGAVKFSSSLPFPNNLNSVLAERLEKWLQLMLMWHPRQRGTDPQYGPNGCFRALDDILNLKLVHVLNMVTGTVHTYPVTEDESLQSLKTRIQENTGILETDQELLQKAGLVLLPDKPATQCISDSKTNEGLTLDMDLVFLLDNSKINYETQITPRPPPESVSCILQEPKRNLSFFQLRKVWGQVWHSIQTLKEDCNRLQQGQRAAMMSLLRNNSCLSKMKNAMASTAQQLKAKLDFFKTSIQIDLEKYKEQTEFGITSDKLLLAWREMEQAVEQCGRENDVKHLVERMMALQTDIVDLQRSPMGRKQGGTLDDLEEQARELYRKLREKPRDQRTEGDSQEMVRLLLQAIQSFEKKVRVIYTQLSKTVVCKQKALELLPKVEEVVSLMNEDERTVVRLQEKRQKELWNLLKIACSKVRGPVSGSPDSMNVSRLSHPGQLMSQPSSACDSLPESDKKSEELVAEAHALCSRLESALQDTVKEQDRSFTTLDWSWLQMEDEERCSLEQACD

[22] = tested on: Mus musculus; assay: Anti-alzheimer activity against scopolamine-induced cognitive dysfunction C57BL/6 mouse model assessed as improvement in cognitive impairment by measuring increase in number of platform crossing at 30 mg/kg, IG administered for 7 days followed by scopolamine stimulation and measured after 4 days by Morris water maze test; type: functional, organism-based; conditions: time 11.0 day
[23] = Antioxidant activity assessed as DPPH radical scavenging activity at 10 uM incubated for 2 hrs under dark condition by microplate reader method relative to control; type: functional
[24] = tested on: SH-SY5Y; assay: Inhibition of H2O2-induced ROS production in human SH-SY5Y cells assessed as reduction in ROS accumulation at 1 to 50 uM pretreated for 6 hrs followed by H2O2 stimulation and measured after 18 hrs by DCFH-DA staining based fluorescence assay; type: functional, cell-based; conditions: dose 1-50 µM, time 24.0 hrs
[25] = Metal chelating activity assessed as Cu2+-compound complex formation by measuring reduction in maximum absorbance intensity at 20 uM incubated for 1 hr by UV-visible spectrophotometry
[26] = target: T2, Inhibitor of nuclear factor kappa-B kinase subunit beta (Mus musculus); assay: Inhibition of IkappaB activation in LPS-stimulated mouse BV-2 cells pretreated for 1 hr followed by LPS stimulation and measured after 24 hrs by Western blot analysis; type: cell-based; conditions: dose 1-10 µM, time 25.0 hrs, DDE = dose-dependent effect
[27] = Toxicity in C57BL/6 mouse model of scopolamine-induced Alzheimer's disease assessed as changes in swimming speed at 10 to 30 mg/kg, IG measured after 7 days; type: organism-based; conditions: in vivo, po, 168 h, dose 10-30 mg/kg, time 7 day
[28] = Toxicity in C57BL/6 mouse assessed as abnormal fluctuations in body weight at 10 to 30 mg/kg, IG measured after 7 days; type: organism-based; conditions: in vivo, po, 168 h, dose 10-30 mg/kg, time 7 day
[29] = tested on: P-glycoprotein; assay: in vitro; conditions: dog, MDCK-MDR1
Description: Substrate activity at P-glycoprotein in MDCKII-MDR1 cells assessed as efflux ratio apparent permeability across basolateral to apical side over apical to basolateral side at 75 uM incubated for 2 hrs

[30] = in vitro; conditions: dog, MDCK-MDR1; remark: listed apart in the source
Description: Apparent permeability across apical to basolateral side in MDCKII-MDR1 cells at 75 uM incubated for 2 hrs

[31] = Inhibition of LPS-induced TNF-alpha secretion in mouse BV-2 cells preincubated for 1 hr followed by LPS stimulation and measured after 24 hrs by ELISA; type: functional, cell-based
[32] = tested on: BV-2; assay: Inhibition of NF-kappaB in LPS-stimulated mouse BV-2 cells assessed as reduction in translocation of p65 NF-kappaB from cytoplasm to nucleus at 1 to 10 uM pretreated for 1 hr followed by LPS stimulation and measured after 24 hrs; type: cell-based; conditions: dose 1-10 µM, time 25.0 hrs

T1 sequence (P81908 whole entry): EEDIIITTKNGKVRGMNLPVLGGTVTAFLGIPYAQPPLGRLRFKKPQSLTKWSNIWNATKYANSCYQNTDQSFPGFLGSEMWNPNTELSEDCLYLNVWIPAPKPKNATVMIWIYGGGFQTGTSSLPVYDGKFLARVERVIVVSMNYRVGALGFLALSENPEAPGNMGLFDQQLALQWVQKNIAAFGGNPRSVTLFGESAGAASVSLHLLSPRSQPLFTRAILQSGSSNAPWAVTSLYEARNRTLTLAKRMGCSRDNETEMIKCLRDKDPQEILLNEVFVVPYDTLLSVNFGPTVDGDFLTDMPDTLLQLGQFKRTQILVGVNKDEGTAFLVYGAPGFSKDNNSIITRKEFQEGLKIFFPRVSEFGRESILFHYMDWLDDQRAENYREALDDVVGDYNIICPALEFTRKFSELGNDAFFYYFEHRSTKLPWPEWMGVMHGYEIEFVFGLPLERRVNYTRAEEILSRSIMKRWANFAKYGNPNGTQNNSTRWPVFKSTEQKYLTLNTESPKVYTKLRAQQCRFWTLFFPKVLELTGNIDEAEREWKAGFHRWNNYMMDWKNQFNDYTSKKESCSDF
Chain of Acetylcholinesterase (O42275 whole entry): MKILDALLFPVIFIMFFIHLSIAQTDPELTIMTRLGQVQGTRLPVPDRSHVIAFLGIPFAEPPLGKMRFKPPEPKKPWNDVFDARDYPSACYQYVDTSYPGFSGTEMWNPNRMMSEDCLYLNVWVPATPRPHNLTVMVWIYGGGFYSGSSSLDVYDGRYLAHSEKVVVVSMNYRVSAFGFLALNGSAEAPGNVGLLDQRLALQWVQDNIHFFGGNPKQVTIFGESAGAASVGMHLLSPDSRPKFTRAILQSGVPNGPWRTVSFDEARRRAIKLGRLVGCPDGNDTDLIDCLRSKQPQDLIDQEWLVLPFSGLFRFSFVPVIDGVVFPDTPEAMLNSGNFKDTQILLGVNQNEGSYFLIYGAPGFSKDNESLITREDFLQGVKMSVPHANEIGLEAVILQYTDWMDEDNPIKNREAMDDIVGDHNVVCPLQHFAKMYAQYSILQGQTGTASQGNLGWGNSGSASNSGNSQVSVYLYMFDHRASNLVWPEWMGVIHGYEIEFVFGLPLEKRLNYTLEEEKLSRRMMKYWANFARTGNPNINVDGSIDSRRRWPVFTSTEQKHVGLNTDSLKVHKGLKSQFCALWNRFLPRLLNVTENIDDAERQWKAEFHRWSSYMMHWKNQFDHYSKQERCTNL
Chain of Amyloid-beta precursor protein (Homo sapiens) (P05067 whole entry): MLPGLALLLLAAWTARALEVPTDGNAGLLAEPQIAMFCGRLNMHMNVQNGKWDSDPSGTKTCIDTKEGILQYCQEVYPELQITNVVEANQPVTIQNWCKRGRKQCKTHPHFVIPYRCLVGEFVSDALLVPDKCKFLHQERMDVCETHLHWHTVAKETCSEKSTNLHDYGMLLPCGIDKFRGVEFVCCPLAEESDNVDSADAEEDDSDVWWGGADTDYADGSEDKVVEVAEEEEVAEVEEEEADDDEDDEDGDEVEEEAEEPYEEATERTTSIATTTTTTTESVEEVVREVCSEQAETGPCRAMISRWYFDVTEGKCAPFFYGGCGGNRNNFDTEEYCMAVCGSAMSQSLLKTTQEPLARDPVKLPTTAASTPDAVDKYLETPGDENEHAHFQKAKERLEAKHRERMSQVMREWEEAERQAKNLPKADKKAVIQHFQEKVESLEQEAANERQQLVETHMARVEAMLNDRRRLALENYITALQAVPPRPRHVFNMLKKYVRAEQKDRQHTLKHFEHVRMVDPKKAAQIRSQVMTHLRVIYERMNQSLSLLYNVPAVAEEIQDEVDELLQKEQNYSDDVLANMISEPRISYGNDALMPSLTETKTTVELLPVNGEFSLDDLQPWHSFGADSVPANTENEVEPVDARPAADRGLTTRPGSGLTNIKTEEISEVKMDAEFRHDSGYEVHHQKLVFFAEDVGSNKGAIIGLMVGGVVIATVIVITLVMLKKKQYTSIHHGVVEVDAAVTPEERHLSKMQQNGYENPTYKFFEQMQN
Chain of Transcription factor p65 (Mus musculus) (Q04207 whole entry): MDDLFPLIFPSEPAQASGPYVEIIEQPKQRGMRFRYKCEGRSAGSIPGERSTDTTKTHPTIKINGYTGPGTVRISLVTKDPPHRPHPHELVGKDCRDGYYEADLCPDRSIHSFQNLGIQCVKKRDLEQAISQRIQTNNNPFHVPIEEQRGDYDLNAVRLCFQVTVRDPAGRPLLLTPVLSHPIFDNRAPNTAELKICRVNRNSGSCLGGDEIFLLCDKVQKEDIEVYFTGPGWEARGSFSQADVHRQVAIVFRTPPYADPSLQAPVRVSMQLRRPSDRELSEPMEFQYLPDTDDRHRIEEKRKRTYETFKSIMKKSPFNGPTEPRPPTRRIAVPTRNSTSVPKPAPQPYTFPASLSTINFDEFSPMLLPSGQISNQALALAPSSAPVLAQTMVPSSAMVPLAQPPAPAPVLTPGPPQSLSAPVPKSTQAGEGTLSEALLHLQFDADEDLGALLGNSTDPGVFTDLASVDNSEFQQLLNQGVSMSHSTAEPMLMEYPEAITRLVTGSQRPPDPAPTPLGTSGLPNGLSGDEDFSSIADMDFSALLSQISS
Chain of Cholinesterase (Equus caballus) (P81908 whole entry): as the sequence (P81908 whole entry) above

## O=C(CNc1ccccc1)Nc1ccc(-c2nc(-c3ccnc(Nc4ccc(OC(F)(F)F)cc4)c3)no2)cc1
[1]
  viability at 5 µM: 46.9%
[2]
  IC50: > 50 µM
[3]
  IC50: 0.42 µM
[4]
  viability at 24 h, 50 µM: 99.4%
[5]
  viability at 24 h, 25 µM: 99.8%
[6]
  IC50: 14.1 µM
[7]
  Ratio IC50: 26
[8]
  viability at 20 µM: 58.4%

## Cc1ccc(NCC(=O)Nc2ccc(-c3nc(-c4ccnc(Nc5ccc(OC(F)(F)F)cc5)c4)no3)cc2)cc1
[1]
  viability at 5 µM: 37.9%
[2]
  IC50: > 50 µM
[3]
  IC50: 5.97 µM
[4]
  viability at 24 h, 50 µM: 99.8%
[5]
  viability at 24 h, 25 µM: 100%
[6]
  IC50: 19.3 µM
[8]
  viability at 20 µM: 49.1%

## O=C(CNc1ccc(C(F)(F)F)cc1)Nc1ccc(-c2nc(-c3ccnc(Nc4ccc(OC(F)(F)F)cc4)c3)no2)cc1
[1]
  viability at 5 µM: 55.8%
[2]
  IC50: 46.5 µM
[3]
  IC50: 1.61 µM
[4]
  viability at 24 h, 50 µM: 99.7%
[5]
  viability at 24 h, 25 µM: 99.9%
[6]
  IC50: 1.88 µM
[8]
  viability at 20 µM: 61.7%

## CCCCNCC(=O)Nc1ccc(-c2nc(-c3ccnc(Nc4ccc(OC(F)(F)F)cc4)c3)no2)cc1
[1]
  viability at 5 µM: 40%
[2]
  IC50: > 50 µM
[3]
  IC50: 8.24 µM
[4]
  viability at 24 h, 50 µM: 98.9%
[5]
  viability at 24 h, 25 µM: 99.9%
[6]
  IC50: 15.7 µM
[8]
  viability at 20 µM: 44.4%

## O=C(CNc1ccc(F)cc1)Nc1ccc(-c2nc(-c3ccnc(Nc4ccc(OC(F)(F)F)cc4)c3)no2)cc1
[9]
  inhibition: Active
[1]
  viability at 5 µM: 46.5%
[10]
  LD50 at 168 h: 75.4 mg/kg
[11]
  Activity: Dde
[12]
  Ki: 0.61 µM
[13]
  Papp B→A at 2 h, 75 µM: 16.3 ×10⁻⁶ cm/s
[14]
  Activity: Dde
[15]
  Activity: 34.6%
[2]
  IC50: > 50 µM
[16]
  inhibition: Active
[3]
  IC50: 0.67 µM
[4]
  viability at 24 h, 50 µM: 98.8%
[17]
  inhibition: Active
[18]
  inhibition: Active
[5]
  viability at 24 h, 25 µM: 99.7%
[19]
  IC50: 1.61 µM
[20]
  Activity: Dde
[21]
  inhibition: Dde
[22]
  Activity: Active
[23]
  Activity: 86.1%
[24]
  inhibition: Active
[25]
  Activity: Active
[26]
  inhibition: Dde
[6]
  IC50: 1.28 µM
[8]
  viability at 20 µM: 66.4%
[27]
  Activity: Non-Toxic
[28]
  Activity: Non-Toxic
[29]
  efflux ratio at 2 h, 75 µM: 0.95
[30]
  Papp A→B at 2 h, 75 µM: 17.2 ×10⁻⁶ cm/s
[31]
  IC50: 4.15 µM
[32]
  inhibition: Active

## O=C(CNc1ccc(F)c(F)c1)Nc1ccc(-c2nc(-c3ccnc(Nc4ccc(OC(F)(F)F)cc4)c3)no2)cc1
[1]
  viability at 5 µM: 35.7%
[2]
  IC50: > 50 µM
[3]
  IC50: 4.8 µM
[4]
  viability at 24 h, 50 µM: 97.3%
[5]
  viability at 24 h, 25 µM: 99.4%
[6]
  IC50: 9.88 µM
[8]
  viability at 20 µM: 45.8%
